The values below come from patent US12319683B2, “Azabenzimidazole compounds and pharmaceutical” (NIPPON SHINYAKU CO., LTD., priority 2018, dated 2025).

Structures can show the parent of a compound that is named as a salt.

In the first data set the test system is SD female rats. The data set is described as follows: Effect on the increase in intravesical pressure induced by electrical stimulation of the pelvic nerve in anesthetized rats. Particulars: intravenous, 0.1 mg/kg. Format: in vivo, rat.
For the compound `CN(CCCCCCN(C)C(=O)Oc1ccc[n+](C)c1)C(=O)Oc1ccc[n+](C)c1` [distigmine bromide, reference compound], the “nicotinic side effect (fasciculation)” value is reported as “observed”.

The test system of a further data set is SD female rats. The data set is described as above. Format: in vivo, rat. Particulars: Rattus norvegicus, iv, 1 h, read-out: Percentage Change (%) Rc of AUC of increase of intravesical pressure (maximum during 1 hour after administration). The procedure: For evaluation of in vivo effect on neurogenic bladder contraction, effects of the test compounds on the increase in intravesical pressure induced by electrical stimulation of the pelvic nerve in rats were determined according to the following method.
SD female rats (Japan SLC, Inc.) were anesthetized by subcutaneous administration of 1200 mg/kg of urethane (Wako Pure Chemical Corporation), and the lower abdomens of the rats were incised in the midline. After the ureters were ligated and cut at locations proximal to the bladder, a cannula (PE-60, BECTON DICKINSON) for cystometry was inserted into the bladder through the external urethral orifice and fixed with sutures. After injecting saline (about 200 μL) via the cannula inserted into the bladder, the other end of the cannula was connected to a pressure transducer to measure intravesical pressure.
The pelvic nerve near the urinary bladder of the rat was gently separated and dissected under stereomicroscope observation and attached to an electrode for nerve stimulation (K2-14015M-PT, BrainScience idea. Co., Ltd.). The peritoneal cavity of the rat was filled with liquid paraffin (26114-75, NACALAI TESQUE, INC.). After the postoperative rest period, an electrical stimulator (SEN-7203, NIHON KOHDEN CORPORATION) was used to stimulate the pelvic nerve to induce increase in intravesical pressure. The stimulation frequency was 8 Hz, the pulse width was 0.3 ms, and the stimulation time was 10 seconds. The voltage of the electrical stimulator was adjusted so that the increase in intravesical pressure was about 50-70% of that at stimulation with 10 V.
The electric stimulation was repeated with an interval of 10 minutes. After the increase of intravesical pressure induced by electric stimulation was stabilized three times or more, a test compound (dosage 0.3 mg/kg), distigmine bromide (dosage 0.03, 0.1 mg/kg) or a vehicle was intravenously administered at 1.0 mL/kg via the catheter placed into femoral vein. The effect of the test compound on increase of intravesical pressure was measured for 1 hour. Saline was used as a vehicle, and the test compound was dissolved in dimethyl sulfoxide before adding to the vehicle. The final concentration of dimethyl sulfoxide was 10%.
The response data (intravesical pressure) were recorded on a personal computer via data collection and analysis system (PowerLab®, ADInstruments) and analyzed using analysis software (LabChart®, ADInstruments). For each electric stimulation, AUC of increase of intravesical pressure (area under the curve of transition of intravesical pressure) was calculated, and percentage change Rc (unit: %) compared to the value (AUC) before the administration of the test compound was calculated according to the following equation (2). In the equation (2), Ab is AUC before administering a test compound, and Aa is AUC after administering a test compound. In addition, the maximum effect observed during 1 hour after administering the test compound (maximum percentage change Rc) was defined as the effect of the test compound. The higher percentage change Rc, the higher effect on enhancement of bladder contraction force and increase of intravesical pressure. Rc=100×(Aa−Ab)/Ab (2)
`CCOc1cc(-c2cc(N(C)CC3(COC)CCCC3)c3[nH]c(-c4cnc(N5[C@@H]6CC[C@H]5C[C@@H](OCC(=O)O)C6)cn4)nc3n2)cc(C(F)(F)F)n1` [Example 15, Sodium {[(1R,3r,5S)-8-(5-{5-[2-ethoxy-6-(trifluoromethyl)pyridin-4-yl]-7-[{[1-(methoxymethyl)cyclopentyl]methyl}(methyl)amino]-1H-imidazo[4,5-b]pyridin-2-yl}pyrazin-2-yl)-8-azabicyclo[3.2.1]octan-3-yl]oxy}acetate]: the change in vivo at 0.3 mg/kg stood at 276%.

The data set is the same for the next values; noted with them: Rattus norvegicus, iv, 1 h; anesthetized SD female rats, pelvic nerve electrical stimulation, test compound 0.3 mg/kg intravenously; read-out: Percentage Change (%) Rc of AUC of increase of intravesical pressure (maximum during 1 hour after administration).
As to `CCOc1cc(-c2cc(N(C)CC3(COC)CCC3)c3[nH]c(-c4cnc(N5CCC(C(=O)O)CC5)cn4)nc3n2)cc(C(F)(F)F)n1` [Example 11, 1-(5-{5-[2-Ethoxy-6-(trifluoromethyl)pyridin-4-yl]-7-[{[1-(methoxymethyl)cyclobutyl]methyl}(methyl)amino]-1H-imidazo[4,5-b]pyridin-2-yl}pyrazin-2-yl)piperidine-4-carboxylic acid dihydrochloride], the change in vivo at 0.3 mg/kg was determined as 270%.

For the compound `CCOc1ncc(-c2cc(N(C)CC3(COC)CCC3)c3[nH]c(-c4cnc(N5CCC(C(=O)O)CC5)cn4)nc3n2)cc1C(F)(F)F` [Example 42], the change in vivo at 0.3 mg/kg was 119%.

On to `COCC1(CN(C)c2cc(-c3cnc(C4CC4)c(C(F)(F)F)c3)nc3nc(-c4ccc(OC5CCN(CC(=O)O)CC5)cc4F)[nH]c23)CCCC1` [Example 10, [4-(4-{5-[6-Cyclopropyl-5-(trifluoromethyl)pyridin-3-yl]-7-[{[1-(methoxymethyl)cyclopentyl]methyl}(methyl)amino]-1H-imidazo[4,5-b]pyridin-2-yl}-3-fluorophenoxy)piperidin-1-yl]acetic acid], for which the change in vivo at 0.3 mg/kg turned out to be 82.6%.

For the compound `COCC1(CN(C)c2cc(-c3cc(F)cc(C(F)(F)F)c3)nc3nc(-c4cnc(N5CCC(F)(C(=O)O)CC5)cn4)[nH]c23)CCC1` [Example 38], the change in vivo at 0.3 mg/kg stood at 98.1%.

As to `CCOCC1(CN(C)c2cc(-c3cnc(C4CC4)c(C(F)(F)F)c3)nc3nc(-c4cnc(N5CCC(C(=O)O)CC5)cn4)[nH]c23)CCCC1` [Example 3, 1-(5-{5-[6-Cyclopropyl-5-(trifluoromethyl)pyridin-3-yl]-7-[{[1-(ethoxymethyl)cyclopentyl]methyl}(methyl)amino]-1H-imidazo[4,5-b]pyridin-2-yl}pyrazin-2-yl)piperidine-4-carboxylic acid], the change in vivo at 0.3 mg/kg came out at 311%.

Take `COCC1(CN(C)c2cc(-c3cnc(C4CC4)c(C(F)(F)F)c3)nc3nc(-c4cnc(N5CCN(CCC(=O)O)C[C@H]5C)cn4)[nH]c23)CCCC1` [Example 20, Sodium 3-[(3R)-4-(5-{5-[6-Cyclopropyl-5-(trifluoromethyl)pyridin-3-yl]-7-[{[1-(methoxymethyl)cyclopentyl]methyl}(methyl)amino]-1H-imidazo[4,5-b]pyridin-2-yl}pyrazin-2-yl)-3-methylpiperazin-1-yl]propanoate]: the change in vivo at 0.3 mg/kg amounted to 249%.

`COCC1(CN(C)c2cc(-c3cc(F)cc(C(F)(F)F)c3)nc3nc(-c4cnc(N5CCN(CC(=O)O)CC5)cn4)[nH]c23)CCC1` [Example 37]: the change in vivo at 0.3 mg/kg was found to be 91.2%.

Take `CCOc1cc(-c2cc(N(C)CC(C)(C)COC)c3[nH]c(-c4cnc(N5CCC(C(=O)O)CC5)cn4)nc3n2)cc(C(F)(F)F)n1` [Example 1, 1-(5-{5-[2-Ethoxy-6-(trifluoromethyl)pyridin-4-yl]-7-[(3-methoxy-2,2-dimethylpropyl)(methyl)amino]-1H-imidazo[4,5-b]pyridin-2-yl}pyrazin-2-yl)piperidine-4-carboxylic acid]: the change in vivo at 0.3 mg/kg stood at 326%.

For the compound `COC[C@@H]1CN(c2cnc(-c3nc4nc(-c5cnc(C6CC6)c(C(F)(F)F)c5)cc(N(C)CC5(COC)CCCCC5)c4[nH]3)cn2)CCN1CCC(=O)O` [Example 8, 3-[(2S)-4-(5-{5-[6-Cyclopropyl-5-(trifluoromethyl)pyridin-3-yl]-7-[{[1-(methoxymethyl)cyclohexyl]methyl}(methyl)amino]-1H-imidazo[4,5-b]pyridin-2-yl}pyrazin-2-yl)-2-(methoxymethyl)piperazin-1-yl]propanoic acid], the change in vivo at 0.3 mg/kg was 374%.

In the case of `COCC1(CN(C)c2cc(-c3cc(C4CC4)nc(C(F)(F)F)c3)nc3nc(-c4cnc(N5CCN(CCC(=O)O)C[C@H]5C)cn4)[nH]c23)CCCCC1` [Example 16, Sodium 3-[(3R)-4-(5-{5-[2-cyclopropyl-6-(trifluoromethyl)pyridin-4-yl]-7-[{[1-(methoxymethyl)cyclohexyl]methyl}(methyl)amino]-1H-imidazo[4,5-b]pyridin-2-yl}pyrazin-2-yl)-3-methylpiperazin-1-yl]propanoate], the change in vivo at 0.3 mg/kg was determined as 182%.

In the case of `COCC1(CN(C)c2cc(-c3cnc(C4CC4)c(C(F)(F)F)c3)nc3nc(-c4cnc(N5CCN(CCC(=O)O)CC5)cn4)[nH]c23)CCCCC1` [Example 6, 3-[4-(5-{5-[6-Cyclopropyl-5-(trifluoromethyl)pyridin-3-yl]-7-[{[1-(methoxymethyl)cyclohexyl]methyl}(methyl)amino]-1H-imidazo[4,5-b]pyridin-2-yl}pyrazin-2-yl)piperazin-1-yl]propanoic acid], the change in vivo at 0.3 mg/kg came out at 571%.

With `CCOc1ncc(-c2cc(N(C)CC3(COC)CCCC3)c3[nH]c(-c4ccc(N5CCC(C(=O)O)CC5)cc4F)nc3n2)cc1C(F)(F)F` [Example 68], the change in vivo at 0.3 mg/kg stood at 133%.

For the compound `CCOc1cc(-c2cc(N(C)CC3(COC)CCCC3)c3[nH]c(-c4cnc(N5CCC(C(=O)O)CC5)cn4)nc3n2)cc(C(F)(F)F)n1` [Example 2, 1-(5-{5-[2-Ethoxy-6-(trifluoromethyl)pyridin-4-yl]-7-[{[1-(methoxymethyl)cyclopentyl]methyl}(methyl)amino]-1H-imidazo[4,5-b]pyridin-2-yl}pyrazin-2-yl)piperidine-4-carboxylic acid], the change in vivo at 0.3 mg/kg amounted to 331%.

With `COCC1(CN(C)c2cc(-c3cnc(C4CC4)c(C(F)(F)F)c3)nc3nc(-c4cnc(N5CCN(CCC(=O)O)C[C@H]5C)cn4)[nH]c23)CCCCC1` [Example 7, 3-[(3R)-4-(5-{5-[6-Cyclopropyl-5-(trifluoromethyl)pyridin-3-yl]-7-[{[1-(methoxymethyl)cyclohexyl]methyl}(methyl)amino]-1H-imidazo[4,5-b]pyridin-2-yl}pyrazin-2-yl)-3-methylpiperazin-1-yl]propanoic acid], the change in vivo at 0.3 mg/kg amounted to 608%.

Consider `CCOCC1(CN(C)c2cc(-c3cnc(C4CC4)c(C(F)(F)F)c3)nc3nc(-c4cnc(N5CCN(CCC(=O)O)C[C@H]5C)cn4)[nH]c23)CCCC1` [Example 14, Sodium 3-[(3R)-4-(5-{5-[6-cyclopropyl-5-(trifluoromethyl)pyridin-3-yl]-7-[{[1-(ethoxymethyl)cyclopentyl]methyl}(methyl)amino]-1H-imidazo[4,5-b]pyridin-2-yl}pyrazin-2-yl)-3-methylpiperazin-1-yl]propanoate], for which the change in vivo at 0.3 mg/kg was 400%.

On to `COCC1(CN(C)c2cc(-c3cc(C4CC4)nc(C(F)(F)F)c3)nc3nc(-c4cnc(N5CCC(OCC(=O)O)CC5)cn4)[nH]c23)CCCC1` [Example 4, {[1-(5-{5-[2-Cyclopropyl-6-(trifluoromethyl)pyridin-4-yl]-7-[{[1-(methoxymethyl)cyclopentyl]methyl}(methyl)amino]-1H-imidazo[4,5-b]pyridin-2-yl}pyrazin-2-yl)piperidin-4-yl]oxy}acetic acid], for which the change in vivo at 0.3 mg/kg came out at 123%.

Staying with this data set, now noted: anesthetized rats, intravenous; test compound 0.3 mg/kg, distigmine bromide 0.03, 0.1 mg/kg; electrical stimulation of pelvic nerve.
In the case of `CN(CCCCCCN(C)C(=O)Oc1ccc[n+](C)c1)C(=O)Oc1ccc[n+](C)c1` [distigmine bromide, reference compound], the “enhancement effect on bladder contractility” value is listed as “showed enhancement of bladder contractility”.
